Target: FABP4 (Homo sapiens, UniProt P15090)
Assay: TdF (Temperature Dependence Fluorescence) assay, thermal shift, FABP4
Format: binding
Excerpt: TdF (Temperature Dependence Fluorescence) Assay for FABP3 and FABP4
The TdF assay was mainly conducted in the 96-well based CHROMO-4 real time fluorescence plate reader (BioRad). The Sypro Orange (Sigma-Aldrich), environmentally sensitive fluorescence dye, was used to monitor the protein folding-unfolding transition. Protein-ligand binding was gauged by the change (or shift) in the unfolding transition temperature (ΔTm) acquired at protein alone with respect to protein in the presence of ligand of interest.
The compound of interest was first prepared in DMSO stock (typical concentration: 10 mM). […] Final percentage of DMSO resided in the sample was 2%. The sample plate was heated from 30° C. to 90° C. with thermal ramping rate of 1° C./min. The fluorescence signals were acquired with excitation and emission wavelengths centered at 490 and 560 nm respectively. The instrument thermal stability was ±0.2° C.
Theoretical basis for TdF-based ligand binding affinity constant
In brief, the binding constant of the ligand at the Tm is expressed as below:
[formula] where To is the midpoint of unfolding for unliganded protein and Tm is the midpoint of unfolding in presence of ligand. [LTm] is free ligand at Tm. The ΔHu and ΔCpu are the enthalpy of unfolding and heat capacity change of unfolding for the protein respectively.
The nonlinear regression fitting in general readily reaches convergence by properly constraining the initial values for the fitting parameters (e.g. the initial “guess” for the ΔHu was constrained to 120 kcal/mol; initial Yn and mn were set to 1 and zero to best represent the melting curve along the low temperature region; negative slope of −0.5 was initially chosen for mu; initial Tm was also constrained to 50° C.).
[formula] (see Brandts et al and Mayhood et al, shown above) where ΔHL (T) is the van't Hoff enthalpy of ligand binding at temperature T and ΔCpL is the heat capacity upon ligand binding. For simplicity, the ΔCpL and ΔHL (T) were set to zero and −7 kcal/mol respectively. […] TdCD (Temperature-dependent Circular Dichroism) Assay for FABP3/4/5

Sequence of FABP4 (P15090 whole entry, species assumed): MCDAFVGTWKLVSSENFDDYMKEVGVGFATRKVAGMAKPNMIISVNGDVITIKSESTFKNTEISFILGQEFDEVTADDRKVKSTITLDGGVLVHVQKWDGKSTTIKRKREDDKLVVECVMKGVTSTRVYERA

Structure (SMILES) | FABP4 TdF Kd | Kd [nM]
O=c1cc(CN2CCc3ccc(Cl)cc32)[nH]c2nc(-c3ccccc3)nn12 [1-83] | B (0.5 ≦ B < 0.001 μM) | 
Cc1c(Br)cccc1OCc1cc(=O)n2nc(-c3ccccc3)nc2[nH]1 [1-84] | B (0.5 ≦ B < 0.001 μM) | 
Cc1c(OCc2cc(=O)n3nc(-c4ccccc4)nc3[nH]2)cccc1C(F)(F)F [1-85] | B (0.5 ≦ B < 0.001 μM) | 
O=c1cc(COc2cc(Cl)cc(Cl)c2)[nH]c2nc(-c3ccccc3)nn12 [1-86] | B (0.5 ≦ B < 0.001 μM) | 
O=c1cc(COc2cc(Cl)cc(Cl)c2Cl)[nH]c2nc(-c3ccccc3)nn12 [1-87] | B (0.5 ≦ B < 0.001 μM) | 
O=c1cc(COc2cccc(Cl)c2)[nH]c2nc(-c3ccccc3)nn12 [1-88] | B (0.5 ≦ B < 0.001 μM) | 
O=c1cc(CN2CCC(Cc3cccc(F)c3)C2)[nH]c2nc(-c3ccccc3)nn12 (centres unmarked) [1-89] |  | > 500
Cn1ccc(NCc2cc(=O)n3nc(-c4ccccc4)nc3[nH]2)n1 [1-90] |  | > 500
O=c1cc(CN2CCC(c3cccc(Cl)c3)C2)[nH]c2nc(-c3ccccc3)nn12 (centres unmarked) [1-91] |  | > 500
O=c1cc(CN2CCC(Cc3ccccc3F)C2)[nH]c2nc(-c3ccccc3)nn12 (centres unmarked) [1-92] |  | > 500
O=c1cc(COc2cccc(F)c2)[nH]c2nc(-c3ccccc3)nn12 [1-93] | B (0.5 ≦ B < 0.001 μM) | 
O=c1cc(COc2ccc(Cl)c(F)c2)[nH]c2nc(-c3ccccc3)nn12 [1-94] | B (0.5 ≦ B < 0.001 μM) | 
CC1(C)CCC(=O)N(Cc2cc(=O)n3nc(-c4ccccc4)nc3[nH]2)C1 [1-95] |  | > 500
CCC1(OCc2cc(=O)n3nc(-c4ccccc4)nc3[nH]2)CCCCC1 [1-96] |  | > 500
CC1(C)CC(OCc2cc(=O)n3nc(-c4ccccc4)nc3[nH]2)CC(C)(C)C1 [1-97] | B (0.5 ≦ B < 0.001 μM) | 
CN1CCc2c(cccc2OCc2cc(=O)n3nc(-c4ccccc4)nc3[nH]2)C1 [1-98] |  | > 500
CC1CC(OCc2cc(=O)n3nc(-c4ccccc4)nc3[nH]2)CC(C)(C)C1 (centres unmarked) [1-99] | B (0.5 ≦ B < 0.001 μM) | 
O=c1cc(CN2CCn3c(nnc3C3CC3)C2)[nH]c2nc(-c3ccccc3)nn12 [1-101] |  | > 500
CC1(C)CCCC(C)(C)C1OCc1cc(=O)n2nc(-c3ccccc3)nc2[nH]1 [1-102] |  | > 500
O=c1cc(CN2CCCC2Cc2ccncn2)[nH]c2nc(-c3ccccc3)nn12 (centres unmarked) [1-103] |  | > 500

Structure (SMILES) | FABP4 TdF Kd | Kd [nM]
Cc1cnc2cccc(NCc3cc(=O)n4nc(-c5ccccc5)nc4[nH]3)n12 [1-104] |  | > 500
Cn1cc2cccc(NCc3cc(=O)n4nc(-c5ccccc5)nc4[nH]3)c2n1 [1-105] |  | > 500
Cn1ncc2cccc(NCc3cc(=O)n4nc(-c5ccccc5)nc4[nH]3)c21 [1-106] |  | > 500
O=c1cc(CO[C@@H]2C[C@H]3CC[C@@H]2C3)[nH]c2nc(-c3ccccc3)nn12 [1-107] | B (0.5 ≦ B < 0.001 μM) | 
O=c1cc(CO[C@H]2C[C@H]3CC[C@@H]2C3)[nH]c2nc(-c3ccccc3)nn12 [1-108] | B (0.5 ≦ B < 0.001 μM) | 
O=c1cc(CN2CCn3c(Br)nnc3C2)[nH]c2nc(-c3ccccc3)nn12 [1-109] |  | > 500
C[C@@H]1C[C@@H](OCc2cc(=O)n3nc(-c4ccccc4)nc3[nH]2)CC(C)(C)C1 [1-110] | B (0.5 ≦ B < 0.001 μM) | 
C[C@@H]1C[C@H](OCc2cc(=O)n3nc(-c4ccccc4)nc3[nH]2)CC(C)(C)C1 [1-111] | B (0.5 ≦ B < 0.001 μM) | 
O=c1cc(CN2CCCC2Cc2cccnc2)[nH]c2nc(-c3ccccc3)nn12 (centres unmarked) [1-112] |  | > 500
Cc1ccsc1-c1nc2[nH]c(COc3cccc(Cl)c3C)cc(=O)n2n1 [1-113] |  | > 500
Cc1ccoc1-c1nc2[nH]c(COc3cccc(Cl)c3C)cc(=O)n2n1 [1-115] |  | > 500
O=c1cc(COc2ccccc2Cl)[nH]c2nc(-c3ccccc3)nn12 [1-118] | B (0.5 ≦ B < 0.001 μM) | 
O=c1cc(CN2CCCC2Cc2c(F)cccc2Cl)[nH]c2nc(-c3ccccc3)nn12 (centres unmarked) [1-131] | B (0.5 ≦ B < 0.001 μM) | 
O=c1cc(COc2cccc(Cl)c2[N+](=O)[O-])[nH]c2nc(-c3ccccc3)nn12 [1-134] | B (0.5 ≦ B < 0.001 μM) | 
O=c1cc(COC2CCCCC2O)[nH]c2nc(-c3ccccc3)nn12 (centres unmarked) [1-135] |  | > 500
Nc1c(Cl)cccc1OCc1cc(=O)n2nc(-c3ccccc3)nc2[nH]1 [1-136] | B (0.5 ≦ B < 0.001 μM) | 
O=c1cc(CN2CCCC2Cc2ccccn2)[nH]c2nc(-c3ccccc3)nn12 (centres unmarked) [1-139] |  | > 500
Cc1ccc(F)c2ccn(Cc3cc(=O)n4nc(-c5ccccc5)nc4[nH]3)c12 [1-141] |  | > 500
Cc1cn(Cc2cc(=O)n3nc(-c4ccccc4)nc3[nH]2)c2cccc(Cl)c12 [1-142] | B (0.5 ≦ B < 0.001 μM) | 
CCCCc1cn(Cc2cc(=O)n3nc(-c4ccccc4)nc3[nH]2)c2cccc(Cl)c12 [1-143] | B (0.5 ≦ B < 0.001 μM) | 

Structure (SMILES) | FABP4 TdF Kd | Kd [nM]
Cn1cc(Br)c(NCc2cc(=O)n3nc(-c4ccccc4)nc3[nH]2)n1 [1-146] |  | > 500
CC1(C)CCC(OCc2cc(=O)n3nc(-c4ccccc4)nc3[nH]2)CC1 [1-147] | B (0.5 ≦ B < 0.001 μM) | 
O=c1cc(COc2cccnc2Br)[nH]c2nc(-c3ccccc3)nn12 [1-148] |  | > 500
Cc1cccc2c1OCCN2Cc1cc(=O)n2nc(-c3ccccc3)nc2[nH]1 [1-149] | B (0.5 ≦ B < 0.001 μM) | 
CC1(OCc2cc(=O)n3nc(-c4ccccc4)nc3[nH]2)CCCCC1 [1-150] | B (0.5 ≦ B < 0.001 μM) | 
Cn1nc(C2CC2)cc1NCc1cc(=O)n2nc(-c3ccccc3)nc2[nH]1 [1-151] |  | > 500
COC(=O)C1(NCc2cc(=O)n3nc(-c4ccccc4)nc3[nH]2)CCc2ccc(Br)cc2C1 (centres unmarked) [1-155] |  | > 500
Cc1c(Cl)cccc1OCc1[nH]c2nc(-c3ccccc3)nn2c(=O)c1Br [2-1] | B (0.5 ≦ B < 0.001 μM) | 
CCc1ccc(OCc2[nH]c3nc(-c4ccccc4)nn3c(=O)c2Br)cc1 [2-2] |  | > 500
Cc1c(Cl)cccc1OCc1[nH]c2nc(-c3ccccc3)nn2c(=O)c1Cl [3-1] | B (0.5 ≦ B < 0.001 μM) | 
Cc1c(Cl)cccc1NCc1cc(=O)n2ncnc2[nH]1 [4-2] |  | > 500
CCc1ccc(NCc2cc(=O)n3ncnc3[nH]2)cc1 [4-3] |  | > 500
CCc1ccc(NCc2cc(=O)n3nc(C(F)(F)F)nc3[nH]2)cc1 [5-2] |  | > 500
O=c1cc(COc2cccc(C(F)(F)F)c2)[nH]c2nc(C(F)(F)F)nn12 [5-3] |  | > 500
Cc1ccc(OCc2cc(=O)n3nc(C(F)(F)F)nc3[nH]2)cc1C [5-4] |  | > 500
O=c1cc(CNc2ccc(F)c(F)c2)[nH]c2nc(C(F)(F)F)nn12 [5-5] |  | > 500
COc1ccc(Cl)cc1NCc1cc(=O)n2nc(C(F)(F)F)nc2[nH]1 [5-6] |  | > 500
CCc1ccc(NCc2cc(=O)n3nc(C)nc3[nH]2)cc1 [5-7] |  | > 500
CCc1ccc(NCc2cc(=O)n3nc(CC)nc3[nH]2)cc1 [5-8] |  | > 500
CCc1ccc(NCc2cc(=O)n3nc(C4CC4)nc3[nH]2)cc1 [5-9] |  | > 500

The remaining lines, values ahead:

FABP4 TdF Kd | Kd [nM] | Structure (SMILES)
 | > 500 | CC(C)c1ccc(NCc2cc(=O)n3nc(-c4ccccc4)nc3[nH]2)cc1 [6-1]
 | > 500 | CCOc1ccc(NCc2cc(=O)n3nc(-c4ccccc4)nc3[nH]2)cc1 [6-2]
 | > 500 | COc1cc2c(cc1OC)CN(Cc1cc(=O)n3nc(-c4ccccc4)nc3[nH]1)C2 [6-5]
 | > 500 | CCc1ccc(OCc2cc(=O)n3ncnc3[nH]2)cc1 [7-1]
 | > 500 | CCc1ccc(OCc2[nH]c3ncnn3c(=O)c2F)cc1 [7-2]
 | > 500 | CCc1ccc(OCc2cc(=O)n3nc(C(F)(F)F)nc3[nH]2)cc1 [8-2]
 | > 500 | CCc1ccc(OCc2cc(=O)n3nc(C)nc3[nH]2)cc1 [8-3]
 | > 500 | CCc1ccc(OCc2cc(=O)n3nc(CC)nc3[nH]2)cc1 [8-4]
 | > 500 | CCc1ccc(OCc2cc(=O)n3nc(-c4cccnc4)nc3[nH]2)cc1 [8-5]
 | > 500 | CCc1ccc(OCc2cc(=O)n3nc(C4CCC4)nc3[nH]2)cc1 [8-6]
 | > 500 | CCc1ccc(OCc2cc(=O)n3nc(C(=O)OC)nc3[nH]2)cc1 [8-7]
 | > 500 | CCc1ccc(OCc2cc(=O)n3nc(CO)nc3[nH]2)cc1 [8-8]
 | > 500 | CCc1ccc(OCc2cc(=O)n3nc(COC(C)=O)nc3[nH]2)cc1 [8-9]
 | > 500 | CCc1ccc(OCc2cc(=O)n3nc(-c4ccncc4)nc3[nH]2)cc1 [8-10]
 | > 500 | CCc1ccc(OCc2cc(=O)n3nc(Cc4ccccc4)nc3[nH]2)cc1 [8-11]
 | > 500 | CCc1ccc(OCc2cc(=O)n3nc(C4CC4)nc3[nH]2)cc1 [8-12]
B (0.5 ≦ B < 0.001 μM) |  | Cc1c(Cl)cccc1OCc1cc(=O)n2nc(-c3cccs3)nc2[nH]1 [8-13]
 | > 500 | Cc1c(Cl)cccc1OCc1cc(=O)n2nc(-c3ccccn3)cc2[nH]1 [8-14]
 | > 500 | CCc1ccc(OCc2cc(=O)n3nc(C(=O)O)nc3[nH]2)cc1 [9-1]
 | > 500 | CCc1ccc(NCc2cc(=O)n3nc(-c4ccccc4)cc3[nH]2)cc1 [10-1]
